{"source": "patent US20100113517A1", "about": "“METHOD FOR THE TREATMENT OF FABRY DISEASE USING PHARMACOLOGICAL CHAPERONES” (AMICUS THERAPEUTICS, INC., priority 2007, published 2010)", "key": {"[1]": {"target": "T1, α-Gal A (Homo sapiens, UniProt P06280)", "T1 construct": "α-Gal A activity was calculated in white blood cells (WBC) before dosing began; endogenous in cells; host or cells: white blood cells of healthy human volunteers", "T1 sequence (P06280 32-429)": "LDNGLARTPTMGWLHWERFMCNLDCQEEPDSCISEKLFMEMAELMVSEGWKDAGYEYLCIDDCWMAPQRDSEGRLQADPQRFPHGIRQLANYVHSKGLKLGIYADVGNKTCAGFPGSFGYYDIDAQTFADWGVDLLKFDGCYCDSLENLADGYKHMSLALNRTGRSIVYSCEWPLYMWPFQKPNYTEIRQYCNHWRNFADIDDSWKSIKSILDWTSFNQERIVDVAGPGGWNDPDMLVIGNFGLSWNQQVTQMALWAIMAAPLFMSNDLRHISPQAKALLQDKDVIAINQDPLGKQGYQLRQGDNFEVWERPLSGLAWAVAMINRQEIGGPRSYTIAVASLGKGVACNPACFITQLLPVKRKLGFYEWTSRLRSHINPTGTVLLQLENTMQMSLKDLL", "assay": "Phase Ib WBC α-Gal A enzymatic activity", "format": "in vivo, healthy volunteers (human)", "method": "WBC α-GAL A Enzymatic Activity Sampling. Blood samples (10 mL each) were collected in blood collection tubes containing EDTA and WBC extracted before dosing and at the following times thereafter: 100 hours, 150 hours, and 336 hours. Samples were treated as described above, and WBC α-Gal A enzymatic activity levels were determined as described in Desnick, R. J. (ed) Enzyme therapy in genetic diseases. Vol 2. Alan R Liss, New York, pp 17-32. Statistical Analysis. Safety data including laboratory evaluations, physical exams, adverse events, ECG monitoring and vital signs assessments were summarized by treatment group and point of time of collection. Descriptive statistics (arithmetic mean, standard deviation, median, minimum and maximum) were calculated for quantitative safety data as well as for the difference to baseline. Frequency counts were compiled for classification of qualitative safety data. In addition, a shift table describing out of normal range shifts was provided for clinical laboratory results. A normal-abnormal shift table was also presented for physical exam results and ECGs."}, "[2]": {"assay": "Phase I ascending single oral dose study, pharmacokinetics", "format": "in vivo, healthy volunteers (human)", "conditions": "for half-life / Tmax / CL renal / AUC(0-inf) / AUC(0-t) / Cmax: male, human; for half-life / Tmax / AUC(0-inf) / AUC(0-t) / Cmax: plasma; for CL renal / Ae, cumulative percentage of DGJ excreted over the 12-hour postdose period: urine; for AUC(0-inf) / AUC(0-t) / Cmax: geometric mean", "method": "This example describes a randomized, double blind, placebo controlled Phase I study of ascending single oral dose of DGJ to evaluate the safety, tolerability and pharmacokinetics of DGJ in healthy volunteers.\nStudy Design and Duration. […] Dose escalation to the next dose level (i.e., next group) proceeded following review of safety and tolerability of the previous group(s). Subjects were housed in the treatment facility from 14 hours prior to dosing until 24 hours after dosing. Meals were controlled by schedule and subjects remained abulatory for 4 hours post drug administration.\nStudy Population. Subjects were healthy, non-institutionalized, non-smoking male volunteers between 19 and 50 years of age (inclusive) consisting of members of the community at large.\nPharmacokinetic Sampling. Blood samples (10 mL each) were collected in blood collection tubes containing EDTA before dosing and at the following times thereafter: 0.25, 0.5, 0.75, 1, 1.5, 2, 3, 4, 5, 6, 8, 10, 12, 16 and 24 hours. Blood samples were cooled in an ice bath and centrifuged under refrigeration as soon as possible. Plasma samples were divided into two aliquots an dstored at […] pending assay. At the end of the study, all samples were transferred to MDS Pharma Services Analytical Laboratories (Lincoln) for analysis.\nPharmacokinetic parameters were summarised by treatment group using descriptive statistics (arithmetic means, standard deviations, coefficients of variation, sample size, minimum, maximum and median). In addition, geometric means were calculated for AUC0-t, AUCinf and Cmax."}, "[3]": {"assay": "Phase II study in Fabry patients, cardiac, renal and central nervous system function", "format": "in vivo, Fabry patients (human)", "conditions": "after 12 to 48 weeks of treatment", "method": "Study Design. A two-arm design was planned. […] In the second arm, escalating doses of 25, 100, and then 250 mg b.i.d. over 6 weeks, followed by 50 mg/day for the remainder of the study. Cardiac anaylsis. In addition to the biopsies described above, MRIs and echocardiogram with strain rate evaluations will be performed at baseline, 3 and 6 months to assess cardiac morphology (e.g., left ventricular hyertrophy) and cardiac function (e.g., congestive heart failure, ischemia, infarction, arrhythmia). […] Hypertension will also be ealuated since hypertension (associated with renal dysfunction) can increase the risk for hemorrhagic stroke."}, "[4]": {"system": "α-Gal A", "assay": "Plasma concentration at which enzyme activity enhancement is seen (clinical and preclinical studies)", "format": "in vivo", "conditions": "clinical studies and preclinical studies in mice"}, "[5]": {"system": "α-Gal A", "assay": "Phase II study in Fabry patients, α-Gal A activity in white blood cells", "format": "in vivo, Fabry patients (human)", "method": "Study Design. A two-arm design was planned. […] In the second arm, escalating doses of 25, 100, and then 250 mg b.i.d. over 6 weeks, followed by 50 mg/day for the remainder of the study.\nα-Gal A activity. In addition, α-Gal A activity will be assessed in fractionated tissue obtained from biopsies and in blood leukocytes and plasma (from blood collected at baseline and every month).\nα-Gal A Activity. […] Eight patients in the study received an acending dose of 25, 100, and then 250 mg b.i.d. over 6 weeks, followed by 50 mg/day for the remainder of the study (represented on FIG. 2 by closed circles). For purposes of calculating the percentage of normal in the table, the level of α-GAL that is normal was derived by using the average of the levels of α-GAL in white blood cells of 15 healthy volunteers from the multiple-dose Phase I study."}}, "note": "Like-named read-outs stand apart in the source and are kept apart here.", "data": [{"compound": "OCC1NCC(O)C(O)C1O", "note": "(stereo not drawn) [DGJ, 1-deoxygalactonojirimycin]", "values": [{"measurement": "inhibition of WBC α-Gal A enzymatic activity", "setting": "[1]; 50 mg b.i.d. or 150 mg b.i.d.", "result": "did not inhibit"}, {"measurement": "WBC α-Gal A enzymatic activity", "setting": "[1]; 50 mg b.i.d., 100 hours", "result": 120, "unit": "% pre-dose levels"}, {"measurement": "WBC α-Gal A enzymatic activity", "setting": "[1]; 50 mg b.i.d., 150 hours", "result": 130, "unit": "% pre-dose levels"}, {"measurement": "WBC α-Gal A enzymatic activity", "setting": "[1]; 50 mg b.i.d., 336 hours", "result": 145, "unit": "% pre-dose levels"}, {"measurement": "WBC α-Gal A enzymatic activity", "setting": "[1]; 150 mg b.i.d., 100 hours", "result": 150, "unit": "% pre-dose levels"}, {"measurement": "WBC α-Gal A enzymatic activity", "setting": "[1]; 150 mg b.i.d., 150 hours", "result": 185, "unit": "% pre-dose levels"}, {"measurement": "WBC α-Gal A enzymatic activity", "setting": "[1]; 150 mg b.i.d., 336 hours", "result": 185, "unit": "% pre-dose levels"}, {"measurement": "time of peak concentrations, on average", "setting": "[2]; all dose levels (25-675 mg single dose)", "result": "approximately 3 hours"}, {"measurement": "increase of AUC and Cmax with dose", "setting": "[2]; doses increased from 25 mg to 225 mg", "result": "dose-proportional manner"}, {"measurement": "half-life", "setting": "[2]; oral, 25-675 mg single dose, read-out: mean half-life across all dose levels", "result": "3 to 4.6", "unit": "h"}, {"measurement": "Tmax", "setting": "[2]; single oral dose 25 mg", "result": 3, "unit": "h"}, {"measurement": "half-life", "setting": "[2]; single oral dose 25 mg, read-out: t1/2 (converted)", "result": 3.04, "unit": "h"}, {"measurement": "Tmax", "setting": "[2]; single oral dose 75 mg", "result": 2.92, "unit": "h"}, {"measurement": "half-life", "setting": "[2]; single oral dose 75 mg, read-out: t1/2 (converted)", "result": 4.05, "unit": "h"}, {"measurement": "Tmax", "setting": "[2]; single oral dose 225 mg", "result": 3.17, "unit": "h"}, {"measurement": "half-life", "setting": "[2]; single oral dose 225 mg, read-out: t1/2 (converted)", "result": 4.62, "unit": "h"}, {"measurement": "Tmax", "setting": "[2]; single oral dose 675 mg", "result": 2.67, "unit": "h"}, {"measurement": "half-life", "setting": "[2]; single oral dose 675 mg, read-out: t1/2 (converted)", "result": 4.19, "unit": "h"}, {"measurement": "CL renal", "setting": "[2]; oral, as doses increased from 25 mg to 675 mg, read-out: mean renal clearance", "result": "98.3 to 128", "unit": "mL/min"}, {"measurement": "CL renal", "setting": "[2]; single oral dose 25 mg, read-out: CLR (converted)", "result": 98.3, "unit": "mL/min"}, {"measurement": "CL renal", "setting": "[2]; single oral dose 75 mg, read-out: CLR (converted)", "result": 95.5, "unit": "mL/min"}, {"measurement": "CL renal", "setting": "[2]; single oral dose 225 mg, read-out: CLR (converted)", "result": 126, "unit": "mL/min"}, {"measurement": "CL renal", "setting": "[2]; single oral dose 675 mg, read-out: CLR (converted)", "result": 128, "unit": "mL/min"}, {"measurement": "AUC(0-inf)", "setting": "[2]; single oral dose 25 mg", "result": 1130, "unit": "ng·h/mL"}, {"measurement": "AUC(0-t)", "setting": "[2]; single oral dose 25 mg", "result": 1090, "unit": "ng·h/mL"}, {"measurement": "Cmax", "setting": "[2]; single oral dose 25 mg", "result": 201, "unit": "ng/mL"}, {"measurement": "AUC(0-inf)", "setting": "[2]; single oral dose 75 mg", "result": 4730, "unit": "ng·h/mL"}, {"measurement": "AUC(0-t)", "setting": "[2]; single oral dose 75 mg", "result": 4660, "unit": "ng·h/mL"}, {"measurement": "Cmax", "setting": "[2]; single oral dose 75 mg", "result": 685, "unit": "ng/mL"}, {"measurement": "AUC(0-inf)", "setting": "[2]; single oral dose 225 mg", "result": 11400, "unit": "ng·h/mL"}, {"measurement": "AUC(0-t)", "setting": "[2]; single oral dose 225 mg", "result": 11200, "unit": "ng·h/mL"}, {"measurement": "Cmax", "setting": "[2]; single oral dose 225 mg", "result": 2000, "unit": "ng/mL"}, {"measurement": "AUC(0-inf)", "setting": "[2]; single oral dose 675 mg", "result": 35700, "unit": "ng·h/mL"}, {"measurement": "AUC(0-t)", "setting": "[2]; single oral dose 675 mg", "result": 35300, "unit": "ng·h/mL"}, {"measurement": "Cmax", "setting": "[2]; single oral dose 675 mg", "result": 6490, "unit": "ng/mL"}, {"measurement": "Ae, cumulative percentage of DGJ excreted over the 12-hour postdose period", "setting": "[2]; single oral dose 25 mg", "result": 8.78, "unit": "%"}, {"measurement": "Ae, cumulative percentage of DGJ excreted over the 12-hour postdose period", "setting": "[2]; single oral dose 75 mg", "result": 23.4, "unit": "%"}, {"measurement": "Ae, cumulative percentage of DGJ excreted over the 12-hour postdose period", "setting": "[2]; single oral dose 225 mg", "result": 40.3, "unit": "%"}, {"measurement": "Ae, cumulative percentage of DGJ excreted over the 12-hour postdose period", "setting": "[2]; single oral dose 675 mg", "result": 39.6, "unit": "%"}, {"measurement": "cardiac, renal and central nervous system function", "setting": "[3]", "result": "no clinically meaningful changes"}, {"measurement": "plasma concentration at which the pharmacological effect (enzyme activity enhancement) is seen", "setting": "[4]", "result": "approximately 0.4 μM"}, {"measurement": "enzyme activity at the lowest dose evaluated", "setting": "[5]; 25 mg b.i.d., Fabry patients", "result": "increased enzyme activity"}, {"measurement": "restoration of α-Gal A activity levels by titration", "setting": "[5]; as measured in white blood cells", "result": "to the normal range"}, {"measurement": "enzyme activity after dose reduction", "setting": "[5]; dose reduced after 6 weeks to 50 mg/day", "result": "remains elevated"}, {"measurement": "patients with an increase in the activity of the enzyme deficient in Fabry disease", "setting": "[5]; first eleven patients treated for at least 12 weeks, white blood cells", "result": "10 of the 11"}]}]}
